Laboratory results from patent US20190343782A1, “METHODS OF TREATING LIVER TOXICITY AND DISORDERS” (Yeda Research and Development Co. Ltd., priority 2016, published 2019).

Test: APAP-induced hepatotoxicity: liver enzyme release and liver histology
Type: in vivo
Details: control mice; APAP 500 mg/kg intraperitoneally at ZT0 versus ZT12; analyzed 10 hours after injection
Procedure: Mice: C57B1/6 mice were purchased from Harlan and allowed to acclimatize to the animal facility environment for 2 weeks before used for experimentation. […] In all experiments, age- and gender-matched mice were used. Mice were 8-9 weeks of age at the beginning of experiments. All mice were kept at a strict 24-hour light-dark cycle, with lights being turn on from 6 am to 6 pm. […] Acetaminophen was administered intraperitoneally at a concentration of 500 mg/kg at either ZT0 or ZT12, and mice were analyzed 10 hours after injection. All antibiotics as well as acetaminophen were obtained from Sigma Aldrich.
Histology: Sections from the left lobe of the liver were fixed in paraformaldehyde and embedded in paraffin for staining with H&E. Subsequently, sections were examined by a blinded veterinary pathologist and scored for necrosis and hemorrhage on a scale from 0 (healthy) to 3 (most severe).
Statistical analysis: Data are expressed as mean ±SEM. […] Unless stated otherwise, elements with p<0.05 and q<0.1 were considered significant. For metabolites, q<0.2 was considered significant. For two-group comparisons, Mann-Whitney U-test was used and comparisons with p<0.05 were considered significant.

CC(=O)Nc1ccc(O)cc1 [APAP, acetaminophen]
APAP-induced hepatotoxicity (liver enzyme release, liver histology): dramatically exacerbated liver toxicity when APAP was injected at ZT12 as compared to ZTO
